From paper PMC8113459, “Selective inhibition of cullin 3 neddylation through covalent targeting DCN1 protects mice from acetaminophen-induced liver toxicity” (Nature Communications, 2021)
Several values for one entry are separate records, joined by “and”; a condition that tells them apart may be missing. Equal values may be shown once. Read-outs that look alike come from different tables or passages of the source.

How the values were obtained:
[1] = test system: APAP-induced liver injury; experiment: APAP-induced liver injury: ROS assay in liver tissue; assay type: in vivo, mouse
Protocol: The in vivo studies were performed under animal protocols (PRO00007499) and (PRO00006638) approved by the Institutional Animal Care & Use Committee of the University of Michigan, in accordance with the recommendations in the Guide for the Care and Use of Laboratory Animals of the National Institutes of Health. C57BL/6 WT mice (~8 weeks, male, normal chow) were purchased from the Jackson Laboratory and randomly divided into eight groups (8–9 mice per group) treated (IP) as follows: phosphate-buffered saline vehicle once per day for 3 days (G1), APAP alone a single dose at 400 mg/kg on day 1 (G2), DI-1859 alone 25 mg/kg once per day for 3 days (G3), DI-1859 alone 50 mg/kg once per day for 3 days (G4), pretreatment (1 day before the APAP administration) with DI-1859 at 25 mg/kg once per day for 3 days followed with APAP at 400 mg/kg on day (G5), pretreatment (1 day before the APAP administration) with DI-1859 at 50 mg/kg once per day for 3 days followed with APAP at 400 mg/kg on day (G6), APAP a single dose at 400 mg/kg (3 h before the first DI-1859 administration) followed with DI-1859 at 25 mg/Kg once per day for 3 days (G7), and APAP a single dose at 400 mg/kg (3 h before the first DI-1859 administration) followed with DI-1859 at 50 mg/Kg once per day for 3 days (G8).
To induce acute liver injury, animals received PBS or APAP (400 mg/kg, sigma, A7085) through I.P. injection at 12 p.m. and were sacrificed 48 h afterward. To examine the protective effect of DI-1859 (groups 5 and 6), animals were I.P. injected with compound for 3 consecutive days (9 a.m. on each day, starting 1 day before APAP administration). To examine the restorative effect of DI-1859 (groups 7 and 8), animals were I.P. injected with compound 3 h after APAP administration followed by two additional treatments (9 a.m. on the next 2 days). Body weight and blood glucose level measurement, along with blood sample collection, were performed at 12 p.m. on each day.
Liver samples were homogenized in a lysis buffer and mixed with a dichlorofluorescein diacetate fluorescent probe (DCF, Sigma, D6883) to a final probe concentration of 5 µM for 1 h at 37 °C. DCF fluorescence was measured using a BioTek Synergy 2 Multi-Mode Microplate Reader (485 nm excitation and 527 nm emission).

[2] = target: T1, cellular DCN3 protein in U2OS cells (Homo sapiens, UniProt Q8IWE4); experiment: Cellular thermal shift assay (CETSA), DCN3; assay type: cell-based; conditions: concentrations up to 1000 nM
T1 construct: endogenous in cells; host or cells: U2OS
T1 sequence (Q8IWE4 whole entry): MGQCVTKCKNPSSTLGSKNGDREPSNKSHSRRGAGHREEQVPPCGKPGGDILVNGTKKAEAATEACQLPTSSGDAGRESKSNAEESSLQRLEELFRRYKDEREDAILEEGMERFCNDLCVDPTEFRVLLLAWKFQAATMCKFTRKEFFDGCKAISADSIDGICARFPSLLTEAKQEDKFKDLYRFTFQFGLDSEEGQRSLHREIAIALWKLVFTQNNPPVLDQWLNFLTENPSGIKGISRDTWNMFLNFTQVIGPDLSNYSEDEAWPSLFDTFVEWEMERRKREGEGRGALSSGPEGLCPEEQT
Protocol: CETSA was performed as previously described. The U2OS cells (5 × 10^5 per sample) were treated with compounds or with DMSO for 1 h, washed with PBS for three times, and dissolved in 50 µL PBS supplemented with protease inhibitor, followed by heating at 53 °C in a Mastercycler gradient (Eppendorf, New York, USA). Treated cells were then subjected to snap-freezing in liquid nitrogen and thawed on ice for three cycles. The protein level of DCN1 and DCN3 in equal amount of the supernatant was examined by western blot methods. GAPDH was used as a control. Results are representative of three independent experiments.

DCN1 = DCN1 (Homo sapiens, UniProt Q96GG9); experiment: Competitive FP binding assay
Sequence of DCN1 (Q96GG9 whole entry): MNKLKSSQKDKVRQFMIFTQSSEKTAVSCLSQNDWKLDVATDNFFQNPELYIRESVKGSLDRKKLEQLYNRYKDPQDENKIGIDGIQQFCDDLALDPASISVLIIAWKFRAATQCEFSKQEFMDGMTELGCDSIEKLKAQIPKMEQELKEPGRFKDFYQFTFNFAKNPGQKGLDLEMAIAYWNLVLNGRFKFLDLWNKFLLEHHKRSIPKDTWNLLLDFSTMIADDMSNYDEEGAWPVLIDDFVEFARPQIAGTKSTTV
Protocol: Competitive FP binding assay was performed as previously described. The IC50 and Ki values of DI-1548 and DI-1548DD were determined in competitive binding experiments. Mixtures of preincubated protein/probe complex solution in the assay buffer (196 μL) and compounds in DMSO (4 μL) were added into assay plates which were incubated at room temperature for 30 min with gentle shaking. The concentrations of DCN1 protein and fluorescent probe were 50 and 5 nM, respectively. […] FP values in millipolarization units were measured using the Infinite M-1000 plate reader (Tecan U.S., Research Triangle Park, NC) in Microfluor 1 96-well, black, round-bottom plates (Thermo Fisher Scientific, Waltham, MA) at an excitation wavelength of 485 nm and an emission wavelength of 530 nm. IC50 values were determined by nonlinear regression fitting of the competition curves using the dose–response inhibition equation (four parameters, variable slopes) included in the Prism/GraphPad software. Ki values were calculated using methods described previously.

[3] = Cell viability assay (WST-8), MDA-MB-231; assay type: cell-based, human; conditions: human, MDA-MB-231 cells, replicates, read-out: cell viability relative to control
How it was run: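 Cells (2000–3000 per well) were treated with serial dilutions of DCN1 inhibitors for 3 days, then incubated 1–3 h with WST-8 and absorbance read at 450 nm. Growth inhibition was sample-to-control absorbance ratio, with EC50 from fitted curves.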

[4] = G3: DI-1859 25 mg/kg, qD for 3 days
[5] = G4: DI-1859 50 mg/kg, qD for 3 days
[6] = G5: DI-1859 25 mg/kg qD for 3 days, APAP 400 mg/kg 3 h after the second dose
[7] = G6: DI-1859 50 mg/kg qD for 3 days, APAP 400 mg/kg 3 h after the second dose
[8] = G7: APAP 400 mg/kg, then DI-1859 25 mg/kg 3 h after APAP and on day 2 and 3
[9] = G8: APAP 400 mg/kg, then DI-1859 50 mg/kg 3 h after APAP and on day 2 and 3

With `C=C(CN(C)C)C(=O)NC[C@@H](NC(=O)[C@H](Cc1nc2ccc(C(C)C)cc2s1)NC(=O)CC)C1CCCCC1` [DI-1859] the “ROS level in mouse liver tissue, mean” value [1, 4] was 7.034 A.U./ug, the “ROS level normalised to the mean of G1 (vehicle), mean” value (from here on “ROS level normalised to the mean”) [1, 4] was 0.9296 and the “ROS level in mouse liver tissue, mean” value [1, 5] was 7.229 A.U./ug. For the same compound, the “ROS level normalised to the mean” value [1, 5] was 0.9554, the “ROS level in mouse liver tissue, mean” value [1, 6] was 10.9296 A.U./ug and the “ROS level normalised to the mean” value [1, 6] was 1.445. The “ROS level in mouse liver tissue, mean” value [1, 7] was 8.337 A.U./ug, the “ROS level normalised to the mean” value [1, 7] was 1.102 and the “ROS level in mouse liver tissue, mean” value [1, 8] was 10.4847 A.U./ug. The “ROS level normalised to the mean” value [1, 8] was 1.3857, the “ROS level in mouse liver tissue, mean” value [1, 9] was 10.3541 A.U./ug and the “ROS level normalised to the mean” value [1, 9] was 1.368. For the same compound, the “effect on the level of reactive oxygen species (ROS)” value ([1]; prevention and treatment settings) was “effectively reduced the level of reactive oxygen species”.
For `C=C(CN1CCOCC1)C(=O)NC[C@@H](NC(=O)[C@H](Cc1nc2ccc(C(C)C)cc2s1)NC(=O)CC)C1CCCCC1` [DI-1548], the “effect on the thermal stability of cellular DCN3 protein” value [2] was “no discernible effect”, the “FP signal of the competitive binding curve” value (“FP signal” below) (DCN1; Concentration (nM) 0.016935, duplicates) was 44.2 and 44.7 and the “FP signal” value (DCN1; Concentration (nM) 0.050805, duplicates) was 43.5 and 45.8. The “FP signal” value (DCN1; Concentration (nM) 0.152416, duplicates) was 44.1 and 44.8, the “FP signal” value (DCN1; Concentration (nM) 0.457247, duplicates) was 43.8 and 44 and the “FP signal” value (DCN1; Concentration (nM) 1.37174, duplicates) was 41.3. For the same compound, the “FP signal” value (DCN1; Concentration (nM) 4.11523, duplicates) was 32.5 and 31.9, the “FP signal” value (DCN1; Concentration (nM) 12.3457, duplicates) was 17.8 and 17.9 and the “FP signal” value (DCN1; Concentration (nM) 37.037, duplicates) was 15.7 and 15.4. For the same compound, the “FP signal” value (DCN1; Concentration (nM) 111.111, duplicates) was 14.3 and 14.5, the “FP signal” value (DCN1; Concentration (nM) 333.333, duplicates) was 15.3 and 15.7 and the “FP signal” value (DCN1; Concentration (nM) 1000, duplicates) was 16.2 and 15.8. For the same compound, the IC50 (DCN1; DCN1 50 nM, probe 5 nM, 30 min) was 4.6 nM, the Ki (DCN1; DCN1 50 nM, probe 5 nM, 30 min) was < 1 nM and the viability at 72 h ([3]; conc 30, 72 h) was 105%. The viability at 72 h ([3]; conc 100, 72 h) was 97.2%.
